Organism: Rattus norvegicus
Assay: Open TG-GATES - Regimen: Single
Format: toxicity, organism-based, Sprague-Dawley
Design: regimen Single, gender Male, age 6 weeks
Conditions: in vivo, ip, 300 mg/kg, route intraperitoneal injection, dose level Middle; for APTT / Bas / Eos / Fbg / Hb / Ht / Lym / MCH / MCHC / MCV / Mono / Neu / PT / Plat / RBC / Ret / WBC: tissue Blood; for KIDNEY_L / KIDNEY_R / KIDNEY_TOTAL: tissue Kidney; for LIVER: tissue Liver; for A/G / ALP / ALT / AST / BUN / CRE / Ca / Cl / DBIL / GLC / IP / K / LDH / Na / PL / RALB / TBIL / TC / TG / TP / gamma-GTP: tissue Plasma

N[C@H]1C(O)O[C@H](CO)[C@@H](O)[C@@H]1O (some centres not stated) [GLUCOSAMINE]
TERMINAL_BW (3 h): 188.6 g | APTT (3 h): 17.5 s | Bas (3 h): 0.4% | Eos (3 h): 0.4% | Fbg (3 h): 247.4 mg/dL | Hb (3 h): 12.6 g/dL | Ht (3 h): 38.9% | Lym (3 h): 67% | MCH (3 h): 21 pg | MCHC (3 h): 32.3% | MCV (3 h): 64.9 fL | Mono (3 h): 4% | Neu (3 h): 27% | PT (3 h): 16.2 s | Plat (3 h): 112.1 x10_4/uL | RBC (3 h): 600.6 x10_4/ul | Ret (3 h): 9.4% | WBC (3 h): 96.7 x10_2/uL | KIDNEY_L (3 h): 0.9 g | KIDNEY_R (3 h): 0.9 g | KIDNEY_TOTAL (3 h): 1.8 g | LIVER (3 h): 8.4 g | A/G (3 h): 0.9 | ALP (3 h): 1578.8 IU/L | ALT (3 h): 43.4 IU/L | AST (3 h): 82 IU/L | BUN (3 h): 10.6 mg/dL | CRE (3 h): 0.2 mg/dL | Ca (3 h): 10.5 mg/dL | Cl (3 h): 107.8 meq/L | DBIL (3 h): 0.012 mg/dL | GLC (3 h): 165.8 mg/dL | IP (3 h): 8.9 mg/dL | K (3 h): 4 meq/L | LDH (3 h): 55.6 IU/L | Na (3 h): 142.2 meq/L | PL (3 h): 136.4 mg/dL | RALB (3 h): 2.3 g/dL | TBIL (3 h): 0.052 mg/dL | TC (3 h): 76.6 mg/dL | TG (3 h): 34.8 mg/dL | TP (3 h): 5 g/dL | gamma-GTP (3 h): 1 IU/L | TERMINAL_BW (6 h): 188.8 g | APTT (6 h): 20.1 s | Bas (6 h): 0.2% | Eos (6 h): 1% | Fbg (6 h): 234.4 mg/dL | Hb (6 h): 13.6 g/dL | Ht (6 h): 41.5% | Lym (6 h): 63% | MCH (6 h): 21.3 pg | MCHC (6 h): 32.7% | MCV (6 h): 65.2 fL | Mono (6 h): 2.6% | Neu (6 h): 32.6% | PT (6 h): 18.9 s | Plat (6 h): 107.5 x10_4/uL | RBC (6 h): 636.8 x10_4/ul | Ret (6 h): 9% | WBC (6 h): 50.8 x10_2/uL | KIDNEY_L (6 h): 0.8 g | KIDNEY_R (6 h): 0.8 g | KIDNEY_TOTAL (6 h): 1.6 g | LIVER (6 h): 8.4 g | A/G (6 h): 0.9 | ALP (6 h): 1576.2 IU/L | ALT (6 h): 145.8 IU/L | AST (6 h): 213.4 IU/L | BUN (6 h): 13.8 mg/dL | CRE (6 h): 0.2 mg/dL | Ca (6 h): 10.2 mg/dL | Cl (6 h): 107.2 meq/L | DBIL (6 h): 0.01 mg/dL | GLC (6 h): 164.4 mg/dL | IP (6 h): 9 mg/dL | K (6 h): 3.7 meq/L | LDH (6 h): 212.6 IU/L | Na (6 h): 142.4 meq/L | PL (6 h): 129.8 mg/dL | RALB (6 h): 2.3 g/dL | TBIL (6 h): 0.054 mg/dL | TC (6 h): 70 mg/dL | TG (6 h): 17.8 mg/dL | TP (6 h): 4.9 g/dL | gamma-GTP (6 h): 1 IU/L | TERMINAL_BW (9 h): 183.2 g | APTT (9 h): 18.5 s | Bas (9 h): 0% | Eos (9 h): 0.6% | Fbg (9 h): 307.6 mg/dL | Hb (9 h): 12.7 g/dL | Ht (9 h): 39% | Lym (9 h): 73% | MCH (9 h): 21.1 pg | MCHC (9 h): 32.6% | MCV (9 h): 64.7 fL | Mono (9 h): 1.8% | Neu (9 h): 23.6% | PT (9 h): 17.2 s | Plat (9 h): 109.8 x10_4/uL | RBC (9 h): 602.8 x10_4/ul | Ret (9 h): 9.2% | WBC (9 h): 55.1 x10_2/uL | KIDNEY_L (9 h): 0.9 g | KIDNEY_R (9 h): 0.9 g | KIDNEY_TOTAL (9 h): 1.7 g | LIVER (9 h): 7.3 g | A/G (9 h): 0.9 | ALP (9 h): 1464 IU/L | ALT (9 h): 40.6 IU/L | AST (9 h): 84.4 IU/L | BUN (9 h): 7.6 mg/dL | CRE (9 h): 0.1 mg/dL | Ca (9 h): 10.3 mg/dL | Cl (9 h): 107.4 meq/L | DBIL (9 h): 0.012 mg/dL | GLC (9 h): 162.2 mg/dL | IP (9 h): 9.9 mg/dL | K (9 h): 3.8 meq/L | LDH (9 h): 54.6 IU/L | Na (9 h): 142 meq/L | PL (9 h): 117.8 mg/dL | RALB (9 h): 2.4 g/dL | TBIL (9 h): 0.06 mg/dL | TC (9 h): 63.4 mg/dL | TG (9 h): 23.6 mg/dL | TP (9 h): 5.2 g/dL | gamma-GTP (9 h): 0.8 IU/L | TERMINAL_BW (24 h): 190.9 g | APTT (24 h): 19.9 s | Bas (24 h): 0.6% | Eos (24 h): 1.4% | Fbg (24 h): 205.8 mg/dL | Hb (24 h): 14.1 g/dL | Ht (24 h): 43.4% | Lym (24 h): 70% | MCH (24 h): 20.9 pg | MCHC (24 h): 32.5% | MCV (24 h): 64.3 fL | Mono (24 h): 3.8% | Neu (24 h): 23% | PT (24 h): 25.4 s | Plat (24 h): 102.4 x10_4/uL | RBC (24 h): 675.6 x10_4/ul | Ret (24 h): 7.9% | WBC (24 h): 79.5 x10_2/uL | KIDNEY_L (24 h): 0.8 g | KIDNEY_R (24 h): 0.9 g | KIDNEY_TOTAL (24 h): 1.7 g | LIVER (24 h): 8.1 g | A/G (24 h): 0.9 | ALP (24 h): 2031.4 IU/L | ALT (24 h): 214.6 IU/L | AST (24 h): 341.6 IU/L | BUN (24 h): 13.4 mg/dL | CRE (24 h): 0.2 mg/dL | Ca (24 h): 10.3 mg/dL | Cl (24 h): 107 meq/L | DBIL (24 h): 0.068 mg/dL | GLC (24 h): 165.4 mg/dL | IP (24 h): 9.1 mg/dL | K (24 h): 4.3 meq/L | LDH (24 h): 168 IU/L | Na (24 h): 143.8 meq/L | PL (24 h): 118.2 mg/dL | RALB (24 h): 2.4 g/dL | TBIL (24 h): 0.1 mg/dL | TC (24 h): 57.2 mg/dL | TG (24 h): 42 mg/dL | TP (24 h): 5.2 g/dL | gamma-GTP (24 h): 1 IU/L
